Data published in patent US5391540A, “Substituted pyridine compounds” (Rohm and Haas Company, priority 1993, dated 1995).

Assays:
Experiment in all cases: Pre-emergent herbicidal activity (Table A)
Assay type in all cases: in vivo
Morningglory = conditions: Ipomoea, pre-emergence, Mogl, 11.2 kg/ha, 10-14 days, read-out: herbicidal rating (% inhibition)
Protocol: (§1) The herbicidal ratings used in Tables A and B were assigned according to a scale based on the percent inhibition of each plant species. The herbicide rating symbols in Tables A and B are defined as follows: […]
(§2) One set of pre-emergent tests was conducted as follows:
(§3) Topsoil was placed in a pan and compacted to a depth of 0.95 to 1.27 cm. from the top of the pan. A predetermined number of seeds of each of several monocotyledonous and dicotyledonous annual plant species and/or vegetative propagules of various perennial plant species were placed on top of the soil. The soil required to level fill a pan after seeding or adding vegetative propagules was weighed into another pan. A known amount of the test compound dissolved or suspended in an organic solvent or water and applied in acetone or water as a carrier was thoroughly mixed with this cover soil, and the herbicide/soil mixture was used as a cover layer for the previously prepared pan.
(§4) The plant species usually regarded as weeds which were utilized in one set of pre-emergent activity tests, the data for which are shown in Table A, are identified by letter headings printed diagonally above the columns according to the following legend: […]

Pennsylvania Smartweed = conditions: pre-emergence, Pesw, 11.2 kg/ha, 10-14 days, read-out: herbicidal rating (% inhibition)
Protocol: as §1, §2, §3, §4

Velvetleaf = conditions: Abutilon theophrasti, pre-emergence, Vele, 11.2 kg/ha, 10-14 days, read-out: herbicidal rating (% inhibition)
Protocol: as §1, §2, §3, §4

Rhizome Johnsongrass = conditions: Sorghum halepense, pre-emergence, Rhjg, 11.2 kg/ha, 10-14 days, read-out: herbicidal rating (% inhibition)
Protocol: as §1, §2, §3, §4

Barnyardgrass = conditions: Echinochloa crus-galli, pre-emergence, Bygr, 11.2 kg/ha, 10-14 days, read-out: herbicidal rating (% inhibition)
Protocol: as §1, §2, §3, §4

Canada thistle = conditions: Cirsium arvense, pre-emergence, Cath, 11.2 kg/ha, 10-14 days, read-out: herbicidal rating (% inhibition)
Protocol: as §1, §2, §3, §4

Common Lambsquarters = conditions: Chenopodium album, pre-emergence, Colq, 11.2 kg/ha, 10-14 days, read-out: herbicidal rating (% inhibition)
Protocol: as §1, §2, §3, §4

Quackgrass = conditions: pre-emergence, Rhqg, 11.2 kg/ha, 10-14 days, read-out: herbicidal rating (% inhibition)
Protocol: as §1, §2, §3, §4

Cocklebur = conditions: Xanthium strumarium, pre-emergence, Cobu, 11.2 kg/ha, 10-14 days, read-out: herbicidal rating (% inhibition)
Protocol: as §1, §2, §3, §4

Yellow Nutsedge = conditions: Cyperus, pre-emergence, Yens, 11.2 kg/ha, 10-14 days, read-out: herbicidal rating (% inhibition)
Protocol: as §1, §2, §3, §4

Downy Brome = conditions: Bromus tectorum, pre-emergence, Dobr, 11.2 kg/ha, 10-14 days, read-out: herbicidal rating (% inhibition)
Protocol: as §1, §2, §3, §4

Compound	inhibition at 11200 g/ha (Morningglory)	inhibition at 11200 g/ha (Pennsylvania Smartweed)	inhibition at 11200 g/ha (Velvetleaf)	inhibition at 11200 g/ha (Rhizome Johnsongrass)	inhibition at 11200 g/ha (Barnyardgrass)	inhibition at 11200 g/ha (Canada thistle)	inhibition at 11200 g/ha (Common Lambsquarters)	inhibition at 11200 g/ha (Quackgrass)	inhibition at 11200 g/ha (Cocklebur)	inhibition at 11200 g/ha (Yellow Nutsedge)	inhibition at 11200 g/ha (Downy Brome)
CCCOc1nc(C(F)(F)F)c(C(=O)OC)c(CC(C)C)c1C(=O)OCC [Compound 7, 3,5-pyridinedicarboxylic acid, 4-(2-methylpropyl)-2-propyloxy-6-(trifluoromethyl)-,3-ethyl 5-methyl ester]	0 to 24%	25 to 49%	0 to 24%	0 to 24%	75 to 100%	0 to 24%	75 to 100%	0 to 24%	0 to 24%	0 to 24%	–
COC(=O)c1c(OC)nc(C(F)(F)F)c(C(=O)Cl)c1CC(C)C [Compound 84, 3-pyridinecarboxylic acid, 5-(chlorocarbonyl)-2-methoxy-4-(2-methylpropyl)-6-(trifluoromethyl)-, methyl ester]	25 to 49%	–	0 to 24%	0 to 24%	75 to 100%	75 to 100%	75 to 100%	0 to 24%	0 to 24%	0 to 24%	75 to 100%
COC(=O)c1c(OC)nc(C(F)(F)F)c(C(=O)OC)c1CC(=O)O [Compound 13, 3,5-pyridinedicarboxylic acid, 4-(carboxymethyl)-2-methoxy-6-(trifluoromethyl)-, dimethyl ester]	0 to 24%	–	0 to 24%	0 to 24%	0 to 24%	0 to 24%	0 to 24%	0 to 24%	0 to 24%	0 to 24%	0 to 24%
CCOc1nc(C(F)(F)F)c(C(=O)OC)c(CC(C)C)c1C(=O)SC [Compound 8, 3-pyridinecarboxylic acid, 6-ethoxy-4-(2-methylpropyl)-5-[(methylthio)carbonyl]-2-(trifluoromethyl)-, methyl ester]	75 to 100%	75 to 100%	75 to 100%	0 to 24%	75 to 100%	0 to 24%	75 to 100%	75 to 100%	0 to 24%	0 to 24%	–
COCc1c(C(=O)OC)c(OC)nc(C(F)(F)F)c1C(=O)OC [Compound 88, 3,5-pyridinedicarboxylic acid, 2-methoxy-4-(methoxymethyl)-6-(trifluoromethyl)-, dimethyl ester]	25 to 49%	–	25 to 49%	0 to 24%	75 to 100%	0 to 24%	50 to 74%	0 to 24%	0 to 24%	0 to 24%	25 to 49%
COC(=O)c1c(OC)nc(C(F)(F)F)c(C=O)c1CC(C)C [Compound 79, 3-pyridinecarboxylic acid, 5-formy1-2-methoxy-4-(2-methylpropyl)-6-(trifluoromethyl)-, methyl ester]	50 to 74%	75 to 100%	50 to 74%	–	75 to 100%	75 to 100%	75 to 100%	75 to 100%	0 to 24%	0 to 24%	75 to 100%
COC(=O)c1c(C(F)(F)F)nc(OC)c(N)c1CC(C)C [Compound 32, 3-pyridinecarboxylic acid, 5-amino-6-methoxy-4-(2-methylpropyl)-2-(trifluoromethyl)-, methyl ester]	0 to 24%	50 to 74%	0 to 24%	–	75 to 100%	0 to 24%	75 to 100%	0 to 24%	0 to 24%	0 to 24%	0 to 24%
